Data as given in US8173148B2, “Stabilized polymeric delivery system comprising a water-insoluble polymer and an organic liquid” (priority 2004, dated 2012).

Experiments:
Assay type in all cases: physicochemical
[1] = Precipitation / formulation studies of GHRP-1/ATRIGEL formulations (Example 9); conditions: bulk GHRP-1 citrate solution, time needed for commercial manufacturing
Procedure: This formulation was identified as AL3922.02. […] Consequently, a fourth formulation (AL3922.04) was developed.
Table 1 summarizes the precipitation studies that were conducted for each formulation. The acronyms are identified as follows: GHRP-1 is a known […] mimicking growth hormone releasing peptide; DL2A is poly (DL) lactide-glycolide (75/25) having a terminal carboxyl group and an average molecular weight of about 13 kDa and an inherent viscosity of about 0.17 dL/g; NMP is N-methylpyrrolidone.

[2] = Degradation of PLGH by octreotide acetate in NMP, average molecular weight by GPC (Example 4); conditions: ambient temperature, 2 hours
Procedure: A solution of 34 wt % of 50/50 carboxyl terminated polylactide glycolide (PLGH at a 1:1 ratio of lactide to glycolide) in N-methylpyrrolidone (NMP) was prepared and divided into several aliquots. To a 950 mg aliquot was added 57.01 mg of octreotide acetate (OA) to provide a solution of 5.66 wt % octreotide acetate in a 34 wt % solution of PLGH in NMP. Upon standing at ambient temperature for 2 hours, the aliquot with OA and a control aliquot containing only PLGH and NMP were analyzed for average molecular weight of the PLGH by GPC analysis. The retention times were correlated against predetermined molecular weight standards of polylactide-glycolide which had been calibrated by GC-mass spectroscopy.

[3] = Effect of differing octreotide complexes on decomposition of PLGH in NMP, GPC (Example 7); conditions: 35 wt % 50/50 PLGH in NMP, over 25 days, FIG. 3
Procedure: Aliquots of a solution of 50/50 polylactide glycolide having an inherent viscosity of 0.57 dL/g and an average molecular weight of 45,000 were prepared so as to provide 35 wt % aliquots of the PLGH in N-methylpyrrolidone (NMP). To individual aliquots was added one of the following octreotide free base (OB)—complexes: OB-citrate; OB mesylate; OB-acetate; OB-Glucuronate. The OB-citrate complex was studied at several ratios: excess OB, 1:3 exchange, 1:1 exchange and citrate to pH 7. The average molecular weight of the PLGH in the solution was periodically determined over a period of 25 days by GPC analysis using pre-calibrated polylactide-glycolide standards for retention times. The following graph presents the results. […] The data determined by this experiment are presented graphically in FIG. 3.

Row | Compound | drug precipitation / remaining in solution (Comments) [1] | average molecular weight of the PLGH ([2]; 5.66 wt % octreotide acetate in 34 wt % 50/50 PLGH in NMP, control aliquot 37,628 daltons) | degradation of the PLGH molecular weight ([2]; 34 wt % PLGH in NMP) | degradation of PLGH average molecular weight by octreotide complexes [3]
1 | GHRP-1: growth hormone releasing peptide; seven amino acid peptide containing one lysine and one tryptophan (ATRIGEL) | tended to precipitate out of the solution over a couple of hours |  |  | 
2 | C[C@@H](O)[C@@H]1NC(=O)[C@H](CCCCN)NC(=O)[C@@H](Cc2c[nH]c3ccccc23)NC(=O)[C@H](Cc2ccccc2)NC(=O)[C@@H](NC(=O)[C@H](N)Cc2ccccc2)CSSC[C@@H](C(=O)N[C@H](CO)[C@@H](C)O)NC1=O (relative stereo) [octreotide acetate, L-cysteinamide, D-phenylalanyl-L-cysteinyl-L-phenylalanyl-D-tryptophyl-L-lysyl-L-threonyl-N-[2-hydroxy-1-(hydroxymethyl)propyl]-, cyclic (2→7)-disulfide; [R—(R*,R*)]] |  | 20,173 daltons | significant degradation | immediate dramatic degradation
